≈ marks a conversion by molar mass, not a printed value.
Assays:
physchem [1] = conditions: aqueous with cosolvent or surfactant or cyclodextrin
Description: (§1) Additionally investigated was the solubilization of a homologous series of cinnamic acid derivatives.

[2] = Solubilization of a homologous series of cinnamic acid derivatives in water by solubilizers; conditions: aqueous with cosolvent or surfactant or cyclodextrin
Description: as §1

physchem [3] = assay: physchem
Description: The stated products and synergistic mixtures were investigated for their usefulness in pharmaceutical formulations and in particular for solubility improvement for sparingly soluble model substances.
The effect of the stated new solubilizers on the boost to solubility of these active ingredients was investigated and was compared with solubilizers already established for pharmaceutical applications. For this purpose, solution isotherms were recorded, and can be used to ascertain the extent of dissolution mediated by the various solubilizers. The optimum is a sharp increase in drug concentration through the use of small amounts of solubilizer, since increasing concentration may also be accompanied by an increase in the unwanted effects.
The solubilizers investigated were compared with solubilizers already established for pharmaceutical formulations, such as TEGO® SMO 80 V (Polysorbat 80) from Evonik, Solutol® HS 15 from BASF, Ludwigshafen, and Eumulgin® RO 35 PH and Speziol® TPGS Pharma (Tocophersolan) from Cognis, Monheim.

[4] = Solubility (MW) with Eumulgin HPS
[5] = Solubility (MW) with Eumulgin L
[6] = Solubility (MW) with Eumulgin O10
[7] = Solubility (MW) with Eumulgin RO35
[8] = Solubility (MW) with Speziol TPGS
[9] = Solubility (MW) with Tego SMO 80V
[10] = Eumulgin ES solution in water, Solubility (MW) with Eumulgin ES, water, solubilizer Eumulgin ES
[11] = Eumulgin HPS solution in water, Solubility (MW) with Eumulgin HPS, water, solubilizer Eumulgin HPS
[12] = Eumulgin L solution in water, Solubility (MW) with Eumulgin L, water, solubilizer Eumulgin L
[13] = Eumulgin O10 solution in water, Solubility (MW) with Eumulgin O10, water, solubilizer Eumulgin O10
[14] = Eumulgin RO35 solution in water, Solubility (MW) with Eumulgin RO35, water, solubilizer Eumulgin RO35
[15] = Speziol TPGS solution in water, Solubility (MW) with Speziol TPGS, water, solubilizer Speziol TPGS
[16] = Tego SMO 80V solution in water, Solubility (MW) with Tego SMO 80V, water, solubilizer Tego SMO 80V
[17] = aqueous with cosolvent or surfactant or cyclodextrin, Solubility with Eumulgin RO35
[18] = aqueous with cosolvent or surfactant or cyclodextrin, Solubility with TEGO SMO 80V
[19] = water, Solubility, no solubilizer

Compound `CCOC(=O)C=Cc1ccccc1` [Ethyl cinnamate, ethyl cinnamate] has a solubility (physchem [1]; [4]) of 23600 µg/mL (≈ 134 mM), a solubility (physchem [1]; [5]) of 14700 µg/mL (≈ 83.4 mM) and a solubility (physchem [1]; [6]) of 47000 µg/mL (≈ 267 mM). For the same compound, the solubility (physchem [1]; [7]) was 68000 µg/mL (≈ 386 mM), the solubility (physchem [1]; [8]) was 42300 µg/mL (≈ 240 mM) and the solubility (physchem [1]; [9]) was 96400 µg/mL (≈ 547 mM).
In the case of `COC(=O)C=Cc1ccccc1` [Methyl cinnamate, methyl cinnamate], the solubility [2, 10] is reported as 3000 µg/mL (≈ 18.5 mM), the solubility [2, 11] is reported as 11400 µg/mL (≈ 70.3 mM) and the solubility [2, 12] is reported as 9800 µg/mL (≈ 60.4 mM). The solubility [2, 13] was 9100 µg/mL (≈ 56.1 mM), the solubility [2, 14] was 21500 µg/mL (≈ 133 mM) and the solubility [2, 15] was 7900 µg/mL (≈ 48.7 mM). For the same compound, the solubility [2, 16] was 9600 µg/mL (≈ 59.2 mM).
For `CC(C)OC(=O)C=Cc1ccccc1` [Isopropyl cinnamate, isopropyl cinnamate], the solubility [2, 10] was 3400 µg/mL (≈ 17.9 mM), the solubility [2, 11] was 25700 µg/mL (≈ 135 mM) and the solubility [2, 12] was 15200 µg/mL (≈ 79.9 mM). It also gave a solubility [2, 13] of 32600 µg/mL (≈ 171 mM), a solubility [2, 14] of 50900 µg/mL (≈ 268 mM) and a solubility [2, 15] of 21000 µg/mL (≈ 110 mM). The solubility [2, 16] was 52500 µg/mL (≈ 276 mM).
Work on `O=C(C=Cc1ccccc1)OCCc1ccccc1` [Phenethyl cinnamate, phenethyl cinnamate] yielded a solubility (physchem [1]; Solubility (MW) with Eumulgin ES) of 3200 µg/mL (≈ 12.7 mM), a solubility (physchem [1]; [4]) of 2700 µg/mL (≈ 10.7 mM) and a solubility (physchem [1]; [5]) of 2500 µg/mL (≈ 9.91 mM). The solubility (physchem [1]; [6]) was 3700 µg/mL (≈ 14.7 mM), the solubility (physchem [1]; [7]) was 4900 µg/mL (≈ 19.4 mM) and the solubility (physchem [1]; [8]) was 2600 µg/mL (≈ 10.3 mM). For the same compound, the solubility (physchem [1]; [9]) was 2500 µg/mL (≈ 9.91 mM).
Compound `CC[C@H]1OC(=O)[C@H](C)[C@@H](O[C@H]2C[C@@](C)(OC)[C@@H](O)[C@H](C)O2)[C@H](C)[C@@H](O[C@@H]2O[C@H](C)C[C@H](N(C)C)[C@H]2O)[C@](C)(O)C[C@@H](C)C(=O)[C@H](C)[C@@H](O)[C@]1(C)O` [Erythromycin] has a solubility (physchem [3]; aqueous with cosolvent or surfactant or cyclodextrin, Solubility with Eumulgin HPS) of 1230 µg/mL, a solubility (physchem [3]; aqueous with cosolvent or surfactant or cyclodextrin, Solubility with Eumulgin L) of 1070 µg/mL and a solubility (physchem [3]; [17]) of 1660 µg/mL. For the same compound, the solubility (physchem [3]; aqueous with cosolvent or surfactant or cyclodextrin, Solubility with Speziol TPGS) was 1720 µg/mL, the solubility (physchem [3]; [18]) was 1700 µg/mL and the solubility (physchem [3]; [19]) was 459 µg/mL.
For `CCC(C)n1ncn(-c2ccc(N3CCN(c4ccc(OCC5COC(Cn6cncn6)(c6ccc(Cl)cc6Cl)O5)cc4)CC3)cc2)c1=O` (centres unmarked) [Itraconazole], the “Solubility with Eumulgin ES” value (physchem [3]) was 9 µg/mL, the “Solubility with Eumulgin HPS” value (physchem [3]) was 0.008 mg/m1 and the “Solubility with Eumulgin L” value (physchem [3]) was 7 µg/mL. For the same compound, the “Solubility with Speziol TPGS” value (physchem [3]) was 8 µg/mL, the solubility (physchem [3]; [17]) was 11 µg/mL and the solubility (physchem [3]; [18]) was 15 µg/mL. For the same compound, the solubility (physchem [3]; [19]) was 1 µg/mL.
`CC(C)COC(=O)C=Cc1ccccc1` [Isobutyl cinnamate, isobutyl cinnamate] gave a solubility [2, 10] of 1200 µg/mL (≈ 5.87 mM), a solubility [2, 11] of 29000 µg/mL (≈ 142 mM) and a solubility [2, 12] of 41000 µg/mL (≈ 201 mM). It also gave a solubility [2, 13] of 65900 µg/mL (≈ 323 mM), a solubility [2, 14] of 54200 µg/mL (≈ 265 mM) and a solubility [2, 15] of 23100 µg/mL (≈ 113 mM). For the same compound, the solubility [2, 16] was 110000 µg/mL (≈ 539 mM).

— patent US20110281810A1, “Composition” (Cognis IP Management GmbH, priority 2010, published 2011)
